According to patent publication US20030125314A1, “Photodynamic therapy for the treatment of epilepsy” (priority 2001, published 2003):

Assays:
[1] = system: rat model of epilepsy (kindled rats); test: Morris Water Maze (spatial learning and memory) after photodynamic therapy; type: in vivo, Sprague-Dawley rats; conditions: ALA 400 mg/Kg IV, 635 nm laser 10 min at 4 h, vs control animals, F(3,27)=0.920, p=0.445 between groups
From the text: To assess behavioral outcome, thirty-one Sprague-Dawley rats were placed into four groups to test the effects of PDT treatment parameters. All animals underwent a behavioral battery that included the Morris Water Maze (MWM), selected to assess one aspect of hippocampal function, spatial learning and memory and incline plane (IP) to screen for motor injury. […] Male Sprague-Dawley rats (275 g) had bipolar stimulating electrodes stereotactically implanted under surgical anesthesia at 7.4 mm posterior to Bregma and 4.1 lateral to the midline through a 1.5 mm craniotomy. […] ALA (400 mg/Kg) was injected intravenously through a femoral vein catheter. […] Four hours post drug administration animals were anesthetized and stereotactically positioned. […] A 4 mm diameter was created and a laser was positioned 2.3 mm from the surface of the brain. […] Laser light was focused on the brain for 10 minutes at a wavelength of 635 nanometers. […] All animals participated in the MWM test which was conducted over 5 consecutive days.

[2] = system: rat model of epilepsy (kindled rats); test: Incline Plane test (motor/grip strength) after photodynamic therapy; type: in vivo, Sprague-Dawley rats; conditions: ALA 400 mg/Kg IV, 635 nm laser 10 min, vs control groups, F(3,27)=1.616, p=0.209 between groups
Experimental: To assess behavioral outcome, thirty-one Sprague-Dawley rats were placed into four groups to test the effects of PDT treatment parameters. All animals underwent a behavioral battery that included the Morris Water Maze (MWM), selected to assess one aspect of hippocampal function, spatial learning and memory and incline plane (IP) to screen for motor injury. […] ALA (400 mg/Kg) was injected intravenously through a femoral vein catheter. […] Four hours post drug administration animals were anesthetized and stereotactically positioned. […] A 4 mm diameter was created and a laser was positioned 2.3 mm from the surface of the brain. […] Laser light was focused on the brain for 10 minutes at a wavelength of 635 nanometers. […] This test was selected because it can evaluate bilateral grip strength and we used this test to screen for any motor and/or coordination deficiencies resulting for the surgical craniectomy or laser effect on the cortex. […] Any sign of hemiparesis may indicate undesired cortical injury. […] This test involves the initial placement of the animal at a 65 degree angle to the horizontal. The flat plane can move up or down at intervals of 5 degrees, until they are at an angle where they can hold their position without sliding down. Then the opposite side is tested. Animals are evaluated on this task on days 1-4 before going on to the MWM.

kindled rats [3] = test: Morris Water Maze after photodynamic therapy, compared to historic controls; type: in vivo, rat; conditions: animals completing the photodynamic therapy protocol
From the text: (§1) In our study, animals completing the photodynamic therapy protocol recovered from surgery and underwent behavioral testing using the beam walk test to assess paresis and the Morris Water Maze to assess hippocampus related learning.

kindled rats [4] = test: Beam walk test to assess paresis after photodynamic therapy; type: in vivo, rat; conditions: animals completing the photodynamic therapy protocol, compared to historic controls
From the text: as §1

[5] = system: CA1 and CA3 regions of the kindled hippocampus; test: Fluorojade histofluorescence analysis of cell death after laser-induced PDT; type: in vivo, rat; conditions: 24 hours after laser-induced PDT of ALA-treated animals
Experimental: The Wilson laboratory at the University of Toronto has previously measured apoptotic cell death at 24 hours following PDT and our Fluorojade results are consistent with their findings. Lilge et al. (2000) have shown that necrotic and apoptotic cell death are a function of the laser exposure (a variable easy to control) and not extent of ALA uptake or conversion.
Fluorojade (Histo-Chem, Inc) staining will be carried out on 20 micron cryostat-prepared brain sections. Tissue sections are mounted onto gelatinized slides and allowed to dry at room temp. Using a staining rack, slides are immersed in 100% EtOH (3 min), in 70% EtOH (1 min), in distilled water (1 min), and then in 0.06% solution of potassium permanganate (15 min, shaking gently). Slides are rinsed in distilled water, and then immersed in a 0.001% Fluoro-Jade solution (away from light, 30 min, shaking gently) following steps carried out in dim light). Still in dim light, slides are then rinsed, dried, dehydrated (xylene), and coverslipped. Stained slides, viewed with a fluorescence microscope (FITC filter), reveal apoptotic cells as brightly green.

hippocampal cells = test: PpIX fluorescence in brain sections after ALA infusion (fluorescence microscopy, Texas Red filter); conditions: 400 mg/Kg IV, 4 hours
kindled rats [6] = test: Resumed daily kindling stimulations after PDT (seizure activity, after discharges); type: in vivo, rat; conditions: PDT animals, over 1 week of daily stimulation
From the text: We have assessed this therapy in kindled rats. Kindling is a well characterized and reproducible model for reflecting epileptogensis, the process by which a normal brain region becomes an epileptic focus. Animals are kindled with an electrode implanted into the perforant path region of the brain. Each day the animals receive a small stimulus. Initially no seizure activity is induced, but over two or three weeks, this same low level of stimulation generates increasing seizure activity until an animal has 3 consecutive tonic clonic (Stage 5) seizures. Once fully kindled, animals retain this seizure sensitivity even if not stimulated for days or months.
as §1

[7] = cited from earlier work

performance on the MWM task [1]: no significant differences
incline plane assessment (motor performance) [2]: no difference between groups
learning impairment (Morris Water Maze) (kindled rats [3]): no hemiparesis or learning impairment
hemiparesis (beam walk test) (kindled rats [4]): no hemiparesis
SMILES: NCC(=O)CCC(=O)O [ALA, 5-aminolevulinic acid]
cell death (Fluorojade histofluorescence) [5]: selective cell death in the CA1 and CA3 regions of the kindled hippocampus
ALA uptake in hippocampal cells (PpIX fluorescence) (hippocampal cells; fully kindled rats with elicited seizures vs fully kindled rats without elicited seizures and implanted controls, preliminary data): greater ALA uptake in hippocampal cells
PpIX fluorescence (hippocampal cells; kindled rats without elicited seizures vs implanted controls, initial results): more fluorescence than implanted controls
seizure activity / after discharges on resumed kindling stimulation (kindled rats [6]): no seizure activity or significant after discharges
blood-brain barrier passage ([7]; evidenced by increased PpIX concentrations in normal brain tissue after ALA administration (Hebeda, K., 1995)): can cross the blood-brain barrier
time point of maximal uptake of ALA into brain tissue ([7]; following the ALA injection (Lilge, L., et al. 2000)): four
